According to ChEMBL document CHEMBL1201862, “PubChem BioAssay data set” (2004):
Active and inactive are the calls of the source.

Experiments:
[1] = molecular target: Voltage-dependent T-type calcium channel subunit alpha-1H (Homo sapiens, UniProt O95180); assay: Cav3.2 T-type channel blockers, cell-based, SynthLib3 library, HEK293 Cav3.2, fluorescence (AID 493041); type: functional
Cytochrome P450 2D6 = Cytochrome P450 2D6 (Homo sapiens, UniProt P10635);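 also: CYP2D6 member of a cytochrome P450 panel assay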
Cytochrome P450 2C9 = Cytochrome P450 2C9 (Homo sapiens, UniProt P11712)
[2] = insulin promoter down-regulators in MIN6 cells, imaging, high-content screening, mouse beta cells (AID 1628); type: functional
[3] = cytotoxicity in MIN6 insulinoma cells, dose response, cytotoxicity control, cell-based, mouse insulinoma (AID 2122); type: functional;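 also: confirmatory high-throughput counterscreen run to flag cytotoxic compounds; mouse MIN-6 beta cells carrying an insulin promoter eGFP reporter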
[4] = molecular target: T1, Short transient receptor potential channel 4 (Mus musculus, UniProt Q9QUQ5); assay: mouse TRPC4 channel inhibitors, dose response, cell-based, HEK293 TRPC4/mu-opioid, Fluo-4 calcium (AID 434942); type: functional;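 also: potency of inhibitors blocking the TRPC4 calcium response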
T1 sequence (Q9QUQ5 whole entry): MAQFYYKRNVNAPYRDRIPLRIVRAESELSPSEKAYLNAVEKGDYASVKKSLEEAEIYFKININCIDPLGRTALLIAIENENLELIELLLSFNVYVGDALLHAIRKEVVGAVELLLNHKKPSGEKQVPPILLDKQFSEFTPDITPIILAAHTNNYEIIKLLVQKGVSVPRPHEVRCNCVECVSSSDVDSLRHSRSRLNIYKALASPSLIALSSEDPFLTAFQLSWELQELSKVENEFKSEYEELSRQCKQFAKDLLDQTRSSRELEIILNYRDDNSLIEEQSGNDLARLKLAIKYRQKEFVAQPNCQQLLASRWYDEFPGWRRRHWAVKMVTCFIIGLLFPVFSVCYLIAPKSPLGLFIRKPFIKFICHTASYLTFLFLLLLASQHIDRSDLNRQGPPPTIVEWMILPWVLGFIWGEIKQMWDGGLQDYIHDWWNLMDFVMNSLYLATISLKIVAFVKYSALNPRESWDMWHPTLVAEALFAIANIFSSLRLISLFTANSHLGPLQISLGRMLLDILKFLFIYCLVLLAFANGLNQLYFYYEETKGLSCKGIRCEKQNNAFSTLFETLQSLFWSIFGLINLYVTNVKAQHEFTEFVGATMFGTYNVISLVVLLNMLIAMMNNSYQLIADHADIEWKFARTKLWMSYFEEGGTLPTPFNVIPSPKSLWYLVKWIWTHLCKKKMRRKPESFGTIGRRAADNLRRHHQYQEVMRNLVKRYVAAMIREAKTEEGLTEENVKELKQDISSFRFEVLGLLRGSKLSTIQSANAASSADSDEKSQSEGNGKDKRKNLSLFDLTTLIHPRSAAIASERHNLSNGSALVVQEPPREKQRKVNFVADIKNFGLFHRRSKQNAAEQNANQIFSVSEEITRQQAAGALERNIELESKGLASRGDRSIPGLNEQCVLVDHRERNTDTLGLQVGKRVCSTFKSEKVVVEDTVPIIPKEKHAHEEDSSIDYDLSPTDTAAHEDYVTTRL

[5] = molecular target: Cyclin-dependent kinase 5/CDK5 activator 1 (Homo sapiens, UniProt Q00535); assay: CDK5/p35 kinase inhibitors, dose response, biochemical, cherry-picked samples, set 2 (AID 504545)
[6] = inhibitors of HIV Env-driven cell fusion, dose response, cherry-pick (AID 652057); type: functional, cell-based
[7] = CEM21 lymphoblast cell cytotoxicity, dose response, cytotoxicity control for viral fusion inhibitor project, CellTiter-Glo luminescence, cherry-picked (AID 652042); type: functional, cell-based;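 also: potency for signal decrease meaning cytotoxicity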
[8] = ZM109 Env clade C HIV-1 fusion inhibitors, dose response, HeLa effector, CEM target cells, luciferase, cherry-pick (AID 652058); type: functional, cell-based
[9] = off-target signal loss in HeLa-CEM21 co-culture – HeLa F-luc CTL cells, cherry-picked, counter-screen for HIV-1 Env fusion inhibitor project, dose response (AID 652040); type: functional, cell-based;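 also: potency for signal decrease marking cytotoxic or nonspecific inhibition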
[10] = inhibitors of clade B AD8 Env fusion, dose response, cell-based, cherry-pick (AID 652062); type: functional;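 also: luciferase signal from cell-cell fusion driven by HIV-1 clade B AD8 Env; potency is for inhibitors of fusion seen as a drop in luminescence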
[11] = molecular target: UDP-galactopyranose mutase (Mycobacterium tuberculosis, UniProt P9WIQ1); assay: Inhibitors of Mycobacterium tuberculosis UDP-galactopyranose mutase (UGM) enzyme Measured in Biochemical System Using Plate Reader - 2105-02_Inhibitor_Dose_CherryPick_Activity. [Related pubchem assays (depositor defined):AID504439]
Tumor necrosis factor [12] = molecular target: T2, Tumor necrosis factor (Homo sapiens, UniProt P01375); assay: TNFa-triggered NF-kB activation inhibitors, SAR follow-up, cell-based, revised (AID 2337); type: functional
[13] = molecular target: T3, Nucleotide-binding oligomerization domain-containing protein 1 (Homo sapiens, UniProt Q9Y239); assay: NOD1 signaling inhibitors, SAR follow-up, revised (AID 2333); type: functional
T3 sequence (Q9Y239 whole entry): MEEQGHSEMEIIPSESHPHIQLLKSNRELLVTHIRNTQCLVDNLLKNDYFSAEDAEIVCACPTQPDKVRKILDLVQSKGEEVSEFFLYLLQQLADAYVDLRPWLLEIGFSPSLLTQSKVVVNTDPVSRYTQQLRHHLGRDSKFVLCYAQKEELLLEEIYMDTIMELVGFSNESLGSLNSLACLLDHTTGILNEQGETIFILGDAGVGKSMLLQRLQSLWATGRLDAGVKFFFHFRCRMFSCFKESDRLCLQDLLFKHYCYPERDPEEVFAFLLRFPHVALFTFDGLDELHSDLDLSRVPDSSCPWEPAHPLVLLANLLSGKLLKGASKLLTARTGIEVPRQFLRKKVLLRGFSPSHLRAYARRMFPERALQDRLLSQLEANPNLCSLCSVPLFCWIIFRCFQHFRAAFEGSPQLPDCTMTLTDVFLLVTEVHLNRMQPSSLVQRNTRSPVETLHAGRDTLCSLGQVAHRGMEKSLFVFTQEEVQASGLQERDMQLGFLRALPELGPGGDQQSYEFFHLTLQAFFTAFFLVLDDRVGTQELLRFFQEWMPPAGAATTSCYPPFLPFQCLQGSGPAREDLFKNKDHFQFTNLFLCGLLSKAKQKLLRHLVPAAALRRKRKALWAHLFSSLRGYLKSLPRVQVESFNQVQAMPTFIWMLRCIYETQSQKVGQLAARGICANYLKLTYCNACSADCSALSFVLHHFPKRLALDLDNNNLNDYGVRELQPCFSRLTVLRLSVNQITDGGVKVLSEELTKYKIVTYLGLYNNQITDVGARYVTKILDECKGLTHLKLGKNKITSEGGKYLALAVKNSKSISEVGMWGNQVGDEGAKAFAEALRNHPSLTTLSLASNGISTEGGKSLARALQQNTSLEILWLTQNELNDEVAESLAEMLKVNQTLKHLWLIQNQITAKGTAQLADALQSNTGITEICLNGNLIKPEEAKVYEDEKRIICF

[14] = molecular target: T4, Nucleotide-binding oligomerization domain-containing protein 2 (Homo sapiens, UniProt Q9HC29); assay: PubChem AID 2334; type: functional
HEK293 [15] = assay: cells; conditions: Homo sapiens
[16] = molecular target: Dual specificity protein phosphatase 3 (Homo sapiens, UniProt P51452); assay: SAR VHR1 Fluorescent Assay for In Vitro dose response studies Set 3. [Related pubchem assays (depositor defined):AID1654, AID1661, AID1878]; type: functional
[17] = molecular target: T3, Nucleotide-binding oligomerization domain-containing protein 1; assay: SAR analysis of NF-kappaB dependent luciferase using DAP as an inducer - Set 2. [Related pubchem assays (depositor defined):AID1566, AID1575, AID1578, AID1579, AID1849, AID1852, AID2264]; type: functional
Interleukin-8 [18] = molecular target: T5, Interleukin-8 (Homo sapiens, UniProt P10145); assay: SAR analysis of Tumor necrosis factor alpha (TNF-alpha) induced IL-8 secretion in MCF-7/NOD1 cells - Set 2. [Related pubchem assays (depositor defined):AID1575, AID2250, AID2260]; type: functional, cell-based
Interleukin-8 [19] = molecular target: T5, Interleukin-8; assay: SAR analysis of GM-Tri-DAP induced IL-8 secretion in MCF-7/NOD1 cells - Set 2. [Related pubchem assays (depositor defined):AID1575, AID1578, AID2333]; type: functional, cell-based
[20] = molecular target: T4, Nucleotide-binding oligomerization domain-containing protein 2; assay: NOD2 inhibitors, SAR follow-up, set 2 (AID 2475); type: functional
HEK293 [21] = assay: SAR analysis of compounds that are cytotoxic to HEK293 - Set 2. [Related pubchem assays (depositor defined):AID1575, AID1578, AID1849, AID2001, AID2333, AID2334, AID2335, AID2337, AID2800]; type: functional, cell-based; conditions: Homo sapiens
[22] = molecular target: T3, Nucleotide-binding oligomerization domain-containing protein 1; assay: SAR analysis of compounds that inhibit NOD1 - Set 2. [Related pubchem assays (depositor defined):AID1566, AID1575, AID1578, AID1849, AID1852, AID2333, AID2335, AID2798]; type: functional
[23] = molecular target: T3, Nucleotide-binding oligomerization domain-containing protein 1; assay: SAR analysis of compounds that inhibit NOD1 - Set 3. [Related pubchem assays (depositor defined):AID1566, AID1575, AID1578, AID1849, AID1852, AID2333, AID2335, AID2466]; type: functional
Tumor necrosis factor [24] = molecular target: T2, Tumor necrosis factor; assay: TNFa-triggered NF-kB activation inhibitors, SAR follow-up, cell-based, set 3 (AID 2801); type: functional
HEK293 [25] = assay: SAR analysis of compounds that are cytotoxic to HEK293 - Set 3. [Related pubchem assays (depositor defined):AID1575, AID1578, AID1848, AID1849, AID2001, AID2333, AID2334, AID2335, AID2337, AID2469]; type: functional, cell-based; conditions: Homo sapiens
[26] = molecular target: T4, Nucleotide-binding oligomerization domain-containing protein 2; assay: NOD2 signaling inhibitors, analog potency, SAR follow-up, cell-based, set 3 (AID 2799); type: functional
[27] = molecular target: T6, High affinity choline transporter 1 (Homo sapiens, UniProt Q9GZV3); assay: CHT inhibitors, dose response, cell-based, 5-point CRC, membrane potential dye (AID 504840); type: functional
T6 sequence (Q9GZV3 whole entry): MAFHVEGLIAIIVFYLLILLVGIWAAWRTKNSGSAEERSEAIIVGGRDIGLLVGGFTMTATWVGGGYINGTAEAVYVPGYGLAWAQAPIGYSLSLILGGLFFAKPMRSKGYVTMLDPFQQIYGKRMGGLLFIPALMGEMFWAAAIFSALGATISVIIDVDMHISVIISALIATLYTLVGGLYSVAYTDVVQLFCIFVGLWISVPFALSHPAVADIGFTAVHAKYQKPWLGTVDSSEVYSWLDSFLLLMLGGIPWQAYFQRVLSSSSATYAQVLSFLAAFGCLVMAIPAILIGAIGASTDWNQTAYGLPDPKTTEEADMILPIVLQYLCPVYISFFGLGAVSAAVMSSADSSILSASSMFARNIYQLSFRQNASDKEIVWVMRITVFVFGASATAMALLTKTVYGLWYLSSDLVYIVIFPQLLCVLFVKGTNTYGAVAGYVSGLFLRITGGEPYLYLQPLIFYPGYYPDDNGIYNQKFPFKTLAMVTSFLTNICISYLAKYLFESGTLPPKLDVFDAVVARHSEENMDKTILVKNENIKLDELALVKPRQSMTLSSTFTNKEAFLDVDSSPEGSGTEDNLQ

Fatty acid synthase [28] = molecular target: T7, Fatty acid synthase (Homo sapiens, UniProt P49327); assay: FAS thioesterase domain inhibitors, dose response, biochemical, endpoint fluorescence intensity, uHTS hits (AID 624327); type: functional;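 also: fluorescence from hydrolysis of an O-methyl fluorescein acyl ester substrate by the enzyme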
Fatty acid synthase [29] = molecular target: T7, Fatty acid synthase; assay: FAS thioesterase domain inhibitors, dose response, biochemical, kinetic fluorescence intensity (AID 624326); type: functional;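 also: rate of fluorescence rise from hydrolysis of a fluorogenic O-methyl fluorescein ester substrate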
[30] = molecular target: G-protein coupled receptor 55 (Homo sapiens, UniProt Q9Y2T6); assay: GPR55 antagonists, SAR follow-up, counter-screen for GPR35 antagonist project, imaging, image-based (AID 2397); type: functional
Sequence of G-protein coupled receptor 55 (Q9Y2T6 whole entry): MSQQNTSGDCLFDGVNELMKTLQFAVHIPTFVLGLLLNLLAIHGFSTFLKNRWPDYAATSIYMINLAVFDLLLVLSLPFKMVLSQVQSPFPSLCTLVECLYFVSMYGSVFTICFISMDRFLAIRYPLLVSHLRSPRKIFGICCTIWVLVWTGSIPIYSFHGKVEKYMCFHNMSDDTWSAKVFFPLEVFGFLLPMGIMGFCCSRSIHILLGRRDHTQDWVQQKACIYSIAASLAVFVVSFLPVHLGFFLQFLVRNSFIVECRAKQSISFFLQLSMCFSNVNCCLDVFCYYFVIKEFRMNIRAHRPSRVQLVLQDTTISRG

T4 sequence (Q9HC29 whole entry, the tested form may be a part): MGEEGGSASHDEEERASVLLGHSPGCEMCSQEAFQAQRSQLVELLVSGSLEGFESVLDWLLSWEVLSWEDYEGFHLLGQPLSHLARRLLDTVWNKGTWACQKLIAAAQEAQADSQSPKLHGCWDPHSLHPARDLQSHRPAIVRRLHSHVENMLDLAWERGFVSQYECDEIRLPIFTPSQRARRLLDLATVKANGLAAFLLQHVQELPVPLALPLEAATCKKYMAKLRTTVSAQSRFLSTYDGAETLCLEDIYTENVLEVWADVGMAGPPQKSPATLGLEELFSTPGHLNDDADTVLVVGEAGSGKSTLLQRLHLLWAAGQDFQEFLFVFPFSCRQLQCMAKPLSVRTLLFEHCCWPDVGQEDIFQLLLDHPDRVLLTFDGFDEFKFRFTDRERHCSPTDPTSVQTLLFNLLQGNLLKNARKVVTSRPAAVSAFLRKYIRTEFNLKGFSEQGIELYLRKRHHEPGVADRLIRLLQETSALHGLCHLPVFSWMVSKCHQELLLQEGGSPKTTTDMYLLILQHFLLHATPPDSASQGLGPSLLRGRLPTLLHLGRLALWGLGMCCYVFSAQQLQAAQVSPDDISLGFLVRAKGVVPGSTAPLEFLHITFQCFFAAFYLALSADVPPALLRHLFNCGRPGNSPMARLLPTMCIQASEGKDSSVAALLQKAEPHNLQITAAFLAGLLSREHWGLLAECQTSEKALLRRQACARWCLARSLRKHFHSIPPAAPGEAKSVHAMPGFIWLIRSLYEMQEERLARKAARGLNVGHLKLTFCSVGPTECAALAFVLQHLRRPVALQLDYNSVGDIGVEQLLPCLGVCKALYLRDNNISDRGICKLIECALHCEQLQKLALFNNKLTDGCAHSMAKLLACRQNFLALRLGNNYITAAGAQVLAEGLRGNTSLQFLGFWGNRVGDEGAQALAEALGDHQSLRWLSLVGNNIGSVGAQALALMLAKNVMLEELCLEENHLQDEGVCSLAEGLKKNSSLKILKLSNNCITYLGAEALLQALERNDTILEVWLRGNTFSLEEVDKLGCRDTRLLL
T5 sequence (P10145 whole entry): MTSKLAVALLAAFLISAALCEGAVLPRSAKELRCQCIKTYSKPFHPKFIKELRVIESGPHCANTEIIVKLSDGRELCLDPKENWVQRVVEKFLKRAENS
T2 sequence (P01375 whole entry, the tested form may be a part): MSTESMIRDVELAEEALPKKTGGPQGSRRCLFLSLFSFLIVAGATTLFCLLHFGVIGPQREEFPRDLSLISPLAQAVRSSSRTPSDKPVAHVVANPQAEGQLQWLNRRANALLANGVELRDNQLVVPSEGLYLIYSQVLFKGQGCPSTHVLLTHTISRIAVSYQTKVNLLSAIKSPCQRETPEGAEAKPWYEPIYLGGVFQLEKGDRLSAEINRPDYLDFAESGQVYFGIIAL
T7 sequence (P49327 whole entry, the tested form may be a part): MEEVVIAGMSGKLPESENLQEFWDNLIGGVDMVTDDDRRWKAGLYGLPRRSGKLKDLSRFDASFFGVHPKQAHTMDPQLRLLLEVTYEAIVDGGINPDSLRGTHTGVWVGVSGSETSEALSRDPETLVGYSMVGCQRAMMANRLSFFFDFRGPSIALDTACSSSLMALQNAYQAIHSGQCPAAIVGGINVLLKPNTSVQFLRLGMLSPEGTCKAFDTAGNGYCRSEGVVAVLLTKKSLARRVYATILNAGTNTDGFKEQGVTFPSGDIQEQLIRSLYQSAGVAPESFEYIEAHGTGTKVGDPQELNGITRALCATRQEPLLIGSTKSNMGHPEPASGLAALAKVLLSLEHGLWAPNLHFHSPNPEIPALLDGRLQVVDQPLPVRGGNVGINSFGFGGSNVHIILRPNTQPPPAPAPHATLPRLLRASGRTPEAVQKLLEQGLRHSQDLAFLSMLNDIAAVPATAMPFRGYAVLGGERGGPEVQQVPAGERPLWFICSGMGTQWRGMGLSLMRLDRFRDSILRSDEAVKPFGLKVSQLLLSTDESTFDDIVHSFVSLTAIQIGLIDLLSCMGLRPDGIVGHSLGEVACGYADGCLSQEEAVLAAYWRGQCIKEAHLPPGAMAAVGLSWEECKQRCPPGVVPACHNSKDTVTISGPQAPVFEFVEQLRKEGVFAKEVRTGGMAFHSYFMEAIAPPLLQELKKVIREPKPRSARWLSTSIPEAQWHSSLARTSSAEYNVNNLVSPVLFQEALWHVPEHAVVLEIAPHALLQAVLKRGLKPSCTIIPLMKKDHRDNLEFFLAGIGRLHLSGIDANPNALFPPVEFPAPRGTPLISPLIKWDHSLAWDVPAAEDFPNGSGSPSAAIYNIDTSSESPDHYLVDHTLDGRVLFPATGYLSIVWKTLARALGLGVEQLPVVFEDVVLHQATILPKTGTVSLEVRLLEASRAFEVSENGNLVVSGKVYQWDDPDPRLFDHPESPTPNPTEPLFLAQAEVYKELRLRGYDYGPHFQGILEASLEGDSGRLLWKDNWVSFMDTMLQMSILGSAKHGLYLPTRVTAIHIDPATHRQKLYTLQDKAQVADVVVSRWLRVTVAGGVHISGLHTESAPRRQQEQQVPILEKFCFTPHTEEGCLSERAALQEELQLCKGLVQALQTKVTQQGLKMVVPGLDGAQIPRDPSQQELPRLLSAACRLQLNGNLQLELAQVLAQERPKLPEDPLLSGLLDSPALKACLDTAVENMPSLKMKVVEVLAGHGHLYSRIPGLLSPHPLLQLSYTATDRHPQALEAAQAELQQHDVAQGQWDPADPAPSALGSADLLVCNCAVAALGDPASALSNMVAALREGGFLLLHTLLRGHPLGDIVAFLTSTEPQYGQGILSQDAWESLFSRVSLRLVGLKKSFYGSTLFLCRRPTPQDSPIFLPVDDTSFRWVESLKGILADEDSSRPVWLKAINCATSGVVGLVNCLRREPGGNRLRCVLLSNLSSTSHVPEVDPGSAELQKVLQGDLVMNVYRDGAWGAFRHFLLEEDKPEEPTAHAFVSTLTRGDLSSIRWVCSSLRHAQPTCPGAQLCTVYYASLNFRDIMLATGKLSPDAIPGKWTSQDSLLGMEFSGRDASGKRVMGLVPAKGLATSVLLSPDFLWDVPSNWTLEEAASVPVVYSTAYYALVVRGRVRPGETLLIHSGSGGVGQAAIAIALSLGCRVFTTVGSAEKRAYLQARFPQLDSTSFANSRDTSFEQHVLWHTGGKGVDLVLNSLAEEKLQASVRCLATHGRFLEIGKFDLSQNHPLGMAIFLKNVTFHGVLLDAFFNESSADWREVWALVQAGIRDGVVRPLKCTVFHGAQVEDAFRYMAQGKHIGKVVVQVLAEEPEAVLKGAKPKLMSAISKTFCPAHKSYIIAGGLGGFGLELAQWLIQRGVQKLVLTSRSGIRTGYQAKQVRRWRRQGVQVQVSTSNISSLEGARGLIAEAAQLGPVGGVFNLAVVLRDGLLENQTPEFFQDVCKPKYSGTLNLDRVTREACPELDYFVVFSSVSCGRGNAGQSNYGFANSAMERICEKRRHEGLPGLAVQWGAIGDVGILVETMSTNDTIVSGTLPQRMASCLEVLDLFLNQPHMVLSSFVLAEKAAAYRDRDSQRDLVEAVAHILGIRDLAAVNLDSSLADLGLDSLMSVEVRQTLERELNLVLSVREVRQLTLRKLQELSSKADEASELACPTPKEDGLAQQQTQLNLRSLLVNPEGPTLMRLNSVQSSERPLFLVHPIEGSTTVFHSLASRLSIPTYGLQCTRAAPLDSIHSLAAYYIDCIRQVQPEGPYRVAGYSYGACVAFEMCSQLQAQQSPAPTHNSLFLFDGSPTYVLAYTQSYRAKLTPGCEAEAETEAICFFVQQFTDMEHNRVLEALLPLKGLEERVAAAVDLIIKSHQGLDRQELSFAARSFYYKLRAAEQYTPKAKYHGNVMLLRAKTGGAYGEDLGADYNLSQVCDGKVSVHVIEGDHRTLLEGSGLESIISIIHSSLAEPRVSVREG
Sequence of Cytochrome P450 2D6 (P10635 whole entry): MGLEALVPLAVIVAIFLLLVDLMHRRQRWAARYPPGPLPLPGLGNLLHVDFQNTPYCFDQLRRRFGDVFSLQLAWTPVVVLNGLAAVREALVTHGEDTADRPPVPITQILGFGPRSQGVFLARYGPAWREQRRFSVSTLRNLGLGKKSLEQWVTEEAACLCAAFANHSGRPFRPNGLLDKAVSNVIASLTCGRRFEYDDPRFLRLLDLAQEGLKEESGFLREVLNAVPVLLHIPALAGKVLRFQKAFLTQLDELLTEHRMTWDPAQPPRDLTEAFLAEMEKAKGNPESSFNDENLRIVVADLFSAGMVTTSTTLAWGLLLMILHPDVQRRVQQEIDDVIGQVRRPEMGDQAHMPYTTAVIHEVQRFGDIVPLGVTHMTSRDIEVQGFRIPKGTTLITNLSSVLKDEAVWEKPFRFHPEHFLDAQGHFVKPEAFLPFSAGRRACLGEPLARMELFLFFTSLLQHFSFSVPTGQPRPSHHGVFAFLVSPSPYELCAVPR
Sequence of Dual specificity protein phosphatase 3 (P51452 whole entry, the tested form may be a part): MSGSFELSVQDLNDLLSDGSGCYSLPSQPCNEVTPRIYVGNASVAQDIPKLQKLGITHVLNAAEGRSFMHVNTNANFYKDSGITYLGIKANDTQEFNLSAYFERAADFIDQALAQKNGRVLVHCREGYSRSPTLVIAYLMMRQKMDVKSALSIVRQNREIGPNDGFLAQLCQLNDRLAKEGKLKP

CC(C)(C)Cc1nnc(NC(=O)COc2ccc(Cl)cc2Cl)o1
EC50 [1]: 0.81 µM (active)

CCOC(=O)COc1c(C=O)cc(Br)cc1OC
AC50 (Cytochrome P450 2D6): inconclusive
AC50 (Cytochrome P450 2C9): inconclusive

CCCn1c(NC(=O)c2cccc(S(=O)(=O)N3CCCC3)c2)nc2ccccc21
IC50 [2]: 3.34 µM (active)
IC50 [3]: 4.19 µM (active)
EC50 [4]: 0.749 µM (active)
AC50 [5]: 3.94 µM (active)
AC50 [6]: 8.66 µM (active)
AC50 [7]: 9.5 µM (active)
AC50 [8]: 11.2 µM (active)
AC50 [9]: 20.4 µM (active)
AC50 [10]: 9.76 µM (active)

CCOC(=O)c1c(O)[n+]([O-])c2ccc(OC)cc2[n+]1[O-]
AC50 [11]: 200 µM (active)

CC1(C)Cc2c(sc(NC(=O)c3ccccc3Cl)c2C(=O)O)CO1
IC50 (Tumor necrosis factor [12]): > 20 µM (inactive)
IC50 [13]: > 20 µM (inactive)
IC50 [14]: > 20 µM (inactive)
IC50 (HEK293 [15]): > 20 µM (inactive)

Cc1ccc2sc(-c3ccc(NC(=O)c4cc(-n5cnnc5)ccc4Cl)cc3)nc2c1
IC50 [16]: 11.4 µM (active)

CCCCn1c(CN2CCN(c3cccc(Cl)c3)CC2)nc2c1c(=O)n(C)c(=O)n2C
IC50 [17]: 8.7 µM (active)
IC50 (Interleukin-8 [18]): > 25 µM (inactive)
IC50 (Interleukin-8 [19]): > 25 µM (inactive)
IC50 [20]: 2.21 µM (active)
IC50 (HEK293 [21]): > 20 µM (inactive)
IC50 [22]: 2.18 µM (active)
IC50 [23]: 1.8 µM (active)
IC50 (Tumor necrosis factor [24]): 3.35 µM (active)
IC50 (HEK293 [25]): > 20 µM (inactive)
IC50 [26]: 1.41 µM (active)
IC50 [27]: 15.1 µM (active)
IC50 (Fatty acid synthase [28]): 5.07 µM (active)
IC50 (Fatty acid synthase [29]): 5.74 µM (active)

c1ccc(-c2n[n+](-c3ccccc3)c(-c3ccccc3)s2)cc1
IC50 [30]: > 32 µM (inactive)
